From patent publication US20120289501A1, “Benzene-fused 6-membered oxygen-containing heterocyclic derivatives of bicyclic heteroaryls” (NOVARTIS AG, priority 2009, published 2012)

Molecular target: IGF1R (Homo sapiens, UniProt P08069)
Experiment: Cellular IGF-1R assay: inhibition of IGF1R phosphorylation in transduced Hek293 cells, capture ELISA (MSD)
Format: cell-based
Set-up: Hek293 cells transduced with the corresponding receptors; expressed in transfected cells; host or cells: Hek293 (Hek293-IGF1R)
Protocol: In this assay the activity of the compounds of the invention against Insulin-like growth factor I (IGF-1) induced autophosphorylation of the IGF-IR is determined. The assay is conducted as follows: Compound-mediated inhibition of IGF1R and INSR phosphorylation in Hek293 cells transduced with the corresponding receptors is assessed in a capture ELISA format using the MSD (Meso Scale Discovery) platform. Briefly, 30′000 cells washed and diluted in starvation medium (DMEM high glucose supplemented with 0.1% BSA) are seeded in 90 μL per well into 96-well plates pre-coated with poly-D-lysine (0.1 mg/mL in PBS/0). After 24 h incubation at 37° C. and 5% CO2, dose-response effects are determined with 3-fold serial compound dilutions, starting at 10 μM. The final vehicle concentration is 0.1% DMSO in all wells. Following pre-incubation with compounds for 1 h, receptor phosphorylation is triggered by a 10 min exposure to 1.0 ng/μL IGF for Hek293-IGF1R cells, and 5.0 ng/μL insulin for Hek293-InsR cells. Cell lysis is achieved by addition of 80 μL MSD lysis buffer per aspirated well, incubation on ice for 20 min, and a freeze-thaw cycle. Target phosphorylation is then assessed by transferring volumes corresponding to approx. 6 μg Hek293-IGF1R or 0.6 μg Hek293-InsR lysates to MSD assay plates pre-coated with total-IGF1R or total-InsR Abs, respectively. After incubation for 2 h at rt, wells are exposed for 1 hr to a rabbit monoclonal antibody (CST #3024, 1:1000) detecting pIGF1R(Tyr1135/1136) as well as pINSR(Tyr1150/1151). Immune complexes are detected by a SULFO-Tag™-coupled anti-rabbit IgG antibody in the presence of 150 μL MSD read-buffer. Light emission at 620 nm triggered by application of electric current is recorded on a MSD SectorImager 6000. Acquired raw data (mean Ru-ECL units) are processed in an Excel analysis template. The plate blank (MSD lysis buffer) is subtracted from all data points. The effect of a particular test compound concentration on receptor phosphorylation is expressed relative to the window defined by ligand-stimulated vs unstimulated control cells (set as 100%). IC50 values [nM] are determined using 4-parametric curve-fitting (XLfit software, V4.3.2). Alternatively, the assay can be conducted with a slightly different format; Compound-mediated inhibition of IGF-1R and InsR phosphorylation in HEK293 cells overexpressing the corresponding receptors were assessed by quantitative Western blot using an Odyssey infrared imager as readout.
Compound-mediated inhibition of IGF1R and INSR phosphorylation in Hek293 cells transduced with the corresponding receptors is assessed in a capture ELISA format using the MSD (Meso Scale Discovery) platform. Briefly, 30′000 cells washed and diluted in starvation medium (DMEM high glucose supplemented with 0.1% BSA) are seeded in 90 μL per well into 96-well plates pre-coated with poly-D-lysine (0.1 mg/mL in PBS/O). After 24 h incubation at 37° C. and 5% CO2, dose-response effects are determined with 3-fold serial compound dilutions, starting at 10 μM. The final vehicle concentration is 0.1% DMSO in all wells. Following pre-incubation with compounds for 1 h, receptor phosphorylation is triggered by a 10 min exposure to 1.0 ng/μL IGF for Hek293-IGF1R cells, and 5.0 ng/μL insulin for Hek293-InsR cells. Cell lysis is achieved by addition of 80 μL MSD lysis buffer per aspirated well, incubation on ice for 20 min, and a freeze-thaw cycle. Target phosphorylation is then assessed by transferring volumes corresponding to approx. 6 μg Hek293-IGF1R or 0.6 μg Hek293-lnsR lysates to MSD assay plates pre-coated with total-IGF1R or total-lnsR Abs, respectively. After incubation for 2 h at rt, wells are exposed for 1 hr to a rabbit monoclonal antibody (CST #3024, 1:1000) detecting pIGF1R(Tyr1135/1136) as well as pINSR(Tyr1150/1151). Immune complexes are detected by a SULFO-Tag™-coupled anti-rabbit IgG antibody in the presence of 150 μL MSD read-buffer. […]

Sequence of IGF1R (P08069 31-1367): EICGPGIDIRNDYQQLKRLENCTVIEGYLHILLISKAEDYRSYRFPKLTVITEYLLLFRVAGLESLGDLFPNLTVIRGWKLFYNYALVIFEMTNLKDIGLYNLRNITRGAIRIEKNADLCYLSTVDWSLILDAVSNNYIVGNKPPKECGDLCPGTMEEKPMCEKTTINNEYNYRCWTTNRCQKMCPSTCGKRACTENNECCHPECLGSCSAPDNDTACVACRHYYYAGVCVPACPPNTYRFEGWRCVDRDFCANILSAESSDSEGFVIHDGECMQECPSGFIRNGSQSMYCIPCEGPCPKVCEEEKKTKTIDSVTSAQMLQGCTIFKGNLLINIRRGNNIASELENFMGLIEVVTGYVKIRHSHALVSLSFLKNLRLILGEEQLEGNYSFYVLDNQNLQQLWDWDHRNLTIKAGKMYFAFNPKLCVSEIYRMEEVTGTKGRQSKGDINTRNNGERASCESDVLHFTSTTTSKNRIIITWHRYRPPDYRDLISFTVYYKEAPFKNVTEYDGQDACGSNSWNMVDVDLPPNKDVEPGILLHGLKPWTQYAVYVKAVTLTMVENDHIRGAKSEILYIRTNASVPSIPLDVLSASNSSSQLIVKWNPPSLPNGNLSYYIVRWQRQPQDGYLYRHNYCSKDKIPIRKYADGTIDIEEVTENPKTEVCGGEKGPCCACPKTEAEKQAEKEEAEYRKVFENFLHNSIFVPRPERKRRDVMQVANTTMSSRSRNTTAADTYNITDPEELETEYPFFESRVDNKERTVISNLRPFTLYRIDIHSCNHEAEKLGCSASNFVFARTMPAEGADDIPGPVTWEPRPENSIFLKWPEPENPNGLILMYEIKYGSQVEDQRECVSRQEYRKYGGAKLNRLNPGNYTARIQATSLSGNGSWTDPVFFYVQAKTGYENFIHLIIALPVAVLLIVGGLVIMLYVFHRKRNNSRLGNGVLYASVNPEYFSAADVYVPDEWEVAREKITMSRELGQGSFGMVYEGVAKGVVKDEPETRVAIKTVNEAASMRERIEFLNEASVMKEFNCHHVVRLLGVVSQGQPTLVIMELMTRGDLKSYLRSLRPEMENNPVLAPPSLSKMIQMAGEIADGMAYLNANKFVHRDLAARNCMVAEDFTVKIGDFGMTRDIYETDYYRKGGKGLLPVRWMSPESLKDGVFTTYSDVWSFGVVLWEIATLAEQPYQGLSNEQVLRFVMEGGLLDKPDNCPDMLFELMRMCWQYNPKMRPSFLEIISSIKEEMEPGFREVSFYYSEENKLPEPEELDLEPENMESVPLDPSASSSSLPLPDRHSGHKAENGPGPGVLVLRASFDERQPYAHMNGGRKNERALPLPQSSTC

Row | IC50 [µM] | SMILES
1 | 0.05 | Nc1ncnc2c1c(-c1ccc3c(c1)OC(C1CCCO1)CC3)cn2C1CC(O)(CO)C1 (mixture of isomers) [Example 29, (E)-3-{4-Amino-5-[2-(tetrahydro-furan-2-yl)-chroman-7-yl]-pyrrolo[2,3-d]pyrimidin-7-yl}-1-hydroxymethyl-cyclobutanol]
2 | 0.024 | Nc1ncnc2c1c(-c1ccc3c(c1)OC(C1CCCO1)CC3)cn2C1CC(CN2CC3CC2CS3(=O)=O)C1 (mixture of isomers) [Example 66, 7-[cis-3-((S,S)-2,2-dioxo-2λ6-thia-5-aza-bicyclo[2,2,1]hept-5-ylmethyl)-cyclobutyl]-5-[2-trans-(tetrahydro-furan-2-yl-chroman-7-yl)-7H-pyrrolo[2,3-d]pyrimidin-4-ylamine]
3 | 0.017 | Nc1ncnc2c1c(-c1ccc3c(c1)OC(C1CCCO1)CC3)cn2C1CC(CN2CC3CC2CS3(=O)=O)C1 (mixture of isomers) [Example 67, 7-[cis-3-((S,S)-2,2-dioxo-2λ6-thia-5-aza-bicyclo[2,2,1]hept-5-ylmethyl)-cyclobutyl]-5-[2-cis-(tetrahydro-furan-2-yl-chroman-7-yl)-7H-pyrrolo[2,3-d]pyrimidin-4-ylamine]
4 | 0.011 to 0.022 | Nc1ncnc2c1c(-c1ccc3c(c1)OC(c1ccccc1)CC3)cn2[C@H]1C[C@@H](CO)C1 (mixture of isomers) [Example 1, (R,S)-{cis-3-[4-Amino-5-(2-phenyl-chroman-7-yl)-pyrrolo[2,3-d]pyrimidin-7-yl]-cyclobutyl}-methanol]
5 | 0.076 | Nc1nccn2c1c(-c1ccc3c(c1)OC(c1ccccc1)CC3)nc2[C@H]1C[C@@H](CO)C1 (mixture of isomers) [Example 3, (R,S)-{cis-3-[8-Amino-1-(2-phenyl-chroman-7-yl)-imidazo[1,5-a]pyrazin-3-yl]-cyclobutyl}-methanol]
6 | 0.026 | Cc1nccn1C[C@H]1C[C@@H](c2nc(-c3ccc4c(c3)OC(c3ccccc3)CC4)c3c(N)nccn32)C1 (mixture of isomers) [Example 7, (R,S)-3-[cis-3-(2-Methyl-imidazol-1-ylmethyl)-cyclobutyl]-1-(2-phenyl-chroman-7-yl)-imidazo[1,5-a]pyrazin-8-ylamine]
7 | 0.014 | Nc1ncnc2c1c(-c1ccc3c(c1)OC(c1ccccc1)CC3)cn2[C@H]1C[C@@H](Cn2ccnc2CO)C1 (mixture of isomers) [Example 18, (R,S)-(1-{cis-3-[4-Amino-5-(2-phenyl-chroman-7-yl)-pyrrolo[2,3-d]pyrimidin-7-yl]-cyclobutylmethyl}-1H-imidazol-2-yl)-methanol]
8 | 0.012 | Nc1ncnc2c1c(-c1ccc3c(c1)OC(c1ccccc1)C=C3)cn2[C@H]1C[C@@H](CO)C1 (mixture of isomers) [Example 23, (R,S)-{cis-3-[4-Amino-5-(2-phenyl-2H-chromen-7-yl)-pyrrolo[2,3-d]pyrimidin-7-yl]-cyclobutyl}-methanol]
9 | 0.034 | Nc1ncnc2c1c(-c1ccc3c(c1)OC(c1ccccc1)CC3)cn2[C@H]1C[C@@H](CN2CCNC(=O)C2)C1 (mixture of isomers) [Example 28, (R,S)-4-{3-[4-amino-5-(2-phenyl-chroman-7-yl)-pyrrolo[2,3-d]pyrimidin-7-yl]-cyclobutylmethyl}-piperazin-2-one]
10 | 0.136 | Nc1ncnc2c1c(-c1ccc3c(c1)OC(c1ccccc1)CC3)cn2[C@H]1CC[C@@H](NC(=O)C2CC2)CC1 (mixture of isomers) [Example 51, (±)-N-(cis-4-(4-amino-5-(2-phenylchroman-7-yl)-7H-pyrrolo[2,3-d]pyrimidin-7-yl)cyclohexyl)cyclopropanecarboxamide]

Second part, the compound before the results:

Row | SMILES | IC50 [µM]
11 | NC(=O)[C@@H]1CCCN1C[C@H]1C[C@@H](c2nc(-c3ccc4c(c3)OC(c3ccccc3)CC4)c3c(N)nccn32)C1 (mixture of isomers) [Example 4, 1-{cis-3,8-Amino-1-((R)-2-phenyl-chroman-7-yl)-imidazo[1,5-a]pyrazin-3-yl]-cyclobutylmethyl}-(S)-pyrrolidine-2-carboxylic acid amide and 1-{cis-3-[8-amino-1-((S)-2-phenyl-chroman-7-yl)-imidazo[1,5-a]pyrazin-3-yl]-cyclobutylmethyl}-(S)-pyrrolidine-2-carboxylic acid amide] | 0.346
12 | Nc1ncnc2c1c(-c1ccc3c(c1)OC(c1ccccc1)CC3)cn2[C@H]1C[C@@H](CN2CCC[C@H]2CO)C1 (mixture of isomers) [Example 14, (1-{cis-3-[4-Amino-5-((R)-2-phenyl-chroman-7-yl)-pyrrolo[2,3-d]pyrimidin-7-yl]-cyclobutylmethyl}-(S)-pyrrolidin-2-yl)-methanol and (1-{cis-3-[4-amino-5-[((S)-2-phenyl-chroman-7-yl)-pyrrolo[2,3-d]pyrimidin-7-yl]-cyclobutylmethyl}-(S)-pyrrolidin-2-yl)-methanol] | < 0.005
13 | Nc1ncnc2c1c(-c1ccc3c(c1)OC(c1ccccc1)CC3)cn2[C@H]1C[C@H](CO)C1 (mixture of isomers) [Example 2, (R,S)-{Trans-3-[4-amino-5-(2-phenyl-chroman-7-yl)-pyrrolo[2,3-d]pyrimidin-7-yl]-cyclobutyl}-methanol] | 0.03 to 0.103
14 | Nc1ncnc2c1c(-c1ccc3c(c1)OC(c1ccccc1)CC3)cn2[C@H]1C[C@@H](CN2CCS(=O)(=O)CC2)C1 (mixture of isomers) [Example 6, (R,S)-7-[cis-3-(1,1-Dioxo-thiomorpholin-4-ylmethyl)-cyclobutyl]-5-(2-phenyl-chroman-7-yl)-7H-pyrrolo[2,3-d]pyrimidin-4-ylamine] | 0.003
15 | Nc1ncnc2c1c(-c1ccc3c(c1)OC(c1ccccc1)CC3)cn2[C@H]1C[C@@](O)(CO)C1 (mixture of isomers) [Example 8, (R,S)-(E)-3-[4-Amino-5-(2-phenyl-chroman-7-yl)-pyrrolo[2,3-d]pyrimidin-7-yl]-1-hydroxymethyl-cyclobutanol] | 0.095
16 | Nc1ncnc2c1c(-c1ccc3c(c1)OC(c1ccccc1)CC3)cn2[C@H]1C[C@](O)(CO)C1 (mixture of isomers) [Example 9, (R,S)—(Z)-3-[4-amino-5-(2-phenyl-chroman-7-yl)-pyrrolo[2,3-d]pyrimidin-7-yl]-1-hydroxymethyl-cyclobutanol] | 0.158
17 | NC[C@H]1C[C@@H](n2cc(-c3ccc4c(c3)OC(c3ccccc3)CC4)c3c(N)ncnc32)C1 (mixture of isomers) [Example 13, (R,S)-7-(cis-3-Aminomethyl-cyclobutyl)-5-(2-phenyl-chroman-7-yl)-7H-pyrrolo[2,3-d]pyrimidin-4-ylamine] | 0.039
18 | Nc1ncnc2c1c(-c1ccc3c(c1)OC(c1ccccc1)CC3)cn2[C@H]1C[C@@H](CN2[C@@H]3CC[C@H]2C[C@H](O)C3)C1 (mixture of isomers) [Example 36, (R,S)-8-{cis-3-[4-Amino-5-(2-phenyl-chroman-7-yl)-pyrrolo[2,3-d]pyrimidin-7-yl]-cyclobutylmethyl}-8-aza-bicyclo[3.2.1]octan-3-ol] | 0.087
19 | CC(C)C(=O)N[C@H]1CC[C@@H](n2cc(-c3ccc4c(c3)OC(c3ccccc3)CC4)c3c(N)ncnc32)CC1 (mixture of isomers) [Example 52, (±)-N-(cis-4-(4-amino-5-(2-phenylchroman-7-yl)-7H-pyrrolo[2,3-d]pyrimidin-7-yl)cyclohexyl)isobutyramide] | 0.099
